According to US4226863A, “7-Methoxy cephalosporins” (Sumitomo Chemical Company, Limited, priority 1975, dated 1980):
In brackets after ≈: the same amount, converted by molar mass.

Key:
Format in all cases: cell-based
[1] = tested on: Enterobacter aerogenes No. 101; assay: antimicrobial activity, minimum inhibitory concentration, Enterobacter aerogenes No. 101; settings: Klebsiella aerogenes
Method: (§1) The antimicrobial activities of the compounds prepared in the previous Examples were determined in a usual manner and the minimum inhibitory concentrations (in terms of μg/ml) are set forth in the Table below.

Escherichia coli NIHJ = assay: antimicrobial activity, minimum inhibitory concentration, Escherichia coli NIHJ
[2] = tested on: Pseudomonas aeruginosa IID 5142; assay: antimicrobial activity, minimum inhibitory concentration, Pseudomonas aeruginosa IID 5142; settings: IID5142
Method: as §1

Serratia No. 115 = assay: antimicrobial activity, minimum inhibitory concentration, Serratia No. 115
Method: as §1

Proteus vulgaris HX 19 = assay: antimicrobial activity, minimum inhibitory concentration, Proteus vulgaris HX 19; settings: HX19
Method: as §1

Row | Structure (SMILES) | MIC [1] [mg/L] | MIC (Escherichia coli NIHJ) [mg/L] | MIC [2] [mg/L] | MIC (Serratia No. 115) [mg/L] | MIC (Proteus vulgaris HX 19) [mg/L]
1 | CO[C@@]1(NC(=O)[C@H](NC(=O)c2cnc3cccnc3c2O)c2ccccc2)C(=O)N2C(C(=O)O)=C(COC(C)=O)CS[C@@H]21 [Example 1, 3-Acetoxymethyl-7α-methoxy-7β-[D-2-(4-hydroxy-1,5-naphthyridine-3-carbonamido)-2-phenylacetamido]-3-cephem-4-carboxylic Acid] | 6.25 (≈ 10.3 µM) | 3.13 (≈ 5.15 µM) | 1.56 (≈ 2.57 µM) | 50 (≈ 82.3 µM) | 0.39 (≈ 0.642 µM)
2 | CO[C@@]1(NC(=O)[C@H](NC(=O)c2cnc3cccnc3c2O)c2ccc(O)cc2)C(=O)N2C(C(=O)O)=C(CSc3nnnn3C)CS[C@@H]21 [Example 2, 3-[(1-Methyltetrazol-5-yl)thiomethyl]-7α-methoxy-7β-[D-2-(4-hydroxy-1,5-naphthyridine-3-carbonamido)-2-(p-hydroxyphenyl)acetamido]-3-cephem-4-carboxylic Acid] | 3.13 (≈ 4.6 µM) | 0.78 (≈ 1.15 µM) | 1.56 (≈ 2.3 µM) | 3.13 (≈ 4.6 µM) | 0.2 (≈ 0.294 µM)
3 | CO[C@@]1(NC(=O)[C@H](NC(=O)c2cnc3cccnc3c2O)c2ccc(O)cc2)C(=O)N2C(C(=O)O)=C(CSc3cnn[nH]3)CS[C@@H]21 [Example 3, 3-[(Triazol-5-yl)thiomethyl]-7α-methoxy-7β-[D-2-(4-hydroxy-1,5-naphthyridine-3-carbonamido)-2-(p-hydroxyphenyl)acetamido]-3-cephem-4-carboxylic Acid] | 6.25 (≈ 9.4 µM) | 3.13 (≈ 4.71 µM) | 3.13 (≈ 4.71 µM) | 25 (≈ 37.6 µM) | 0.78 (≈ 1.17 µM)
4 | CO[C@@]1(NC(=O)[C@H](NC(=O)c2cnc3cccnc3c2O)c2ccccc2)C(=O)N2C(C(=O)[O-])=C(C[n+]3ccccc3)CS[C@@H]21 [Example 4, 3-Pyridiniummethyl-7α-methoxy-7β-[D-2-(4-hydroxy-1,5-naphthyridine-3-carbonamido)-2-phenylacetamido]-3-cephem-4-carboxylate] | 12.5 (≈ 19.9 µM) | 3.13 (≈ 4.99 µM) | 6.25 (≈ 9.97 µM) | 25 (≈ 39.9 µM) | 0.78 (≈ 1.24 µM)
5 | CO[C@@]1(NC(=O)[C@H](NC(=O)c2cnc3cccnc3c2O)c2ccc(O)cc2)C(=O)N2C(C(=O)O)=C(COC(N)=O)CS[C@@H]21 [Example 5, 3-Carbamoyloxymethyl-7α-methoxy-7β-[D-2-(4-hydroxy-1,5-naphthyridine-3-carbonamido)-2-(p-hydroxyphenyl)-acetamido]-3-cephem-4-caboxylic Acid] | 6.25 (≈ 10 µM) | 3.13 (≈ 5.01 µM) | 3.13 (≈ 5.01 µM) | 50 (≈ 80.1 µM) | 0.39 (≈ 0.624 µM)
6 | CO[C@@]1(NC(=O)C(NC(=O)c2cnc3cncnc3c2O)c2ccccc2)C(=O)N2C(C(=O)O)=C(CSc3nnnn3C)CS[C@@H]21 (stereo partly shown) [Example 7] | 6.25 (≈ 9.4 µM) | 6.25 (≈ 9.4 µM) | 6.25 (≈ 9.4 µM) | 12.5 (≈ 18.8 µM) | 0.78 (≈ 1.17 µM)
7 | CO[C@@]1(NC(=O)C(NC(=O)c2cnccc2O)c2ccccc2)C(=O)N2C(C(=O)O)=C(COC(C)=O)CS[C@@H]21 (stereo partly shown) [Example 8] | 25 (≈ 44.9 µM) | 12.5 (≈ 22.5 µM) | 6.25 (≈ 11.2 µM) | 100 (≈ 180 µM) | 0.39 (≈ 0.701 µM)
8 | CO[C@@]1(NC(=O)C(NC(=O)c2cnccc2O)c2ccc(O)cc2)C(=O)N2C(C(=O)O)=C(CSc3nnnn3C)CS[C@@H]21 (stereo partly shown) [Example 9] | 12.5 (≈ 19.9 µM) | 12.5 (≈ 19.9 µM) | 6.25 (≈ 9.94 µM) | 50 (≈ 79.5 µM) | 0.39 (≈ 0.62 µM)
9 | CO[C@@]1(NC(=O)C(NC(=O)c2cncnc2O)c2ccc(O)cc2)C(=O)N2C(C(=O)O)=C(CSc3nnnn3C)CS[C@@H]21 (stereo partly shown) [Example 10] | 12.5 (≈ 19.9 µM) | 12.5 (≈ 19.9 µM) | 12.5 (≈ 19.9 µM) | 50 (≈ 79.4 µM) | 0.39 (≈ 0.619 µM)
10 | CO[C@@]1(NC(=O)C(NC(=O)c2cncnc2O)c2ccccc2)C(=O)N2C(C(=O)O)=C(COC(N)=O)CS[C@@H]21 (stereo partly shown) [Example 11] | 50 (≈ 89.5 µM) | 12.5 (≈ 22.4 µM) | 12.5 (≈ 22.4 µM) | 100 (≈ 179 µM) | 0.78 (≈ 1.4 µM)
11 | CO[C@@]1(NC(=O)C(NC(=O)c2ccnnc2O)c2ccc(O)cc2)C(=O)N2C(C(=O)O)=C(CSc3nnnn3C)CS[C@@H]21 (stereo partly shown) [Example 12] | 25 (≈ 39.7 µM) | 12.5 (≈ 19.9 µM) | 25 (≈ 39.7 µM) | 100 (≈ 159 µM) | 0.78 (≈ 1.24 µM)
12 | CO[C@@]1(NC(=O)C(NC(=O)c2ccnnc2O)c2ccc(O)cc2)C(=O)N2C(C(=O)O)=C(CSc3nnc(C)s3)CS[C@@H]21 (stereo partly shown) [Example 13] | 25 (≈ 38.7 µM) | 12.5 (≈ 19.4 µM) | 25 (≈ 38.7 µM) | 100 (≈ 155 µM) | 0.78 (≈ 1.21 µM)
13 | CO[C@@]1(NC(=O)C(NC(=O)c2ccnnc2O)c2ccc(O)cc2)C(=O)N2C(C(=O)O)=C(CSc3n[nH]c(=S)s3)CS[C@@H]21 (stereo partly shown) [Example 14] | 25 (≈ 37.7 µM) | 12.5 (≈ 18.8 µM) | 25 (≈ 37.7 µM) | 100 (≈ 151 µM) | 1.56 (≈ 2.35 µM)
14 | CO[C@@]1(NC(=O)C(NC(=O)c2cnc3nc(C)ccc3c2O)c2ccc(O)cc2)C(=O)N2C(C(=O)O)=C(COC(C)=O)CS[C@@H]21 (stereo partly shown) [Example 15] | 50 (≈ 78.4 µM) | 12.5 (≈ 19.6 µM) | 12.5 (≈ 19.6 µM) | 100 (≈ 157 µM) | 1.56 (≈ 2.45 µM)
15 | CO[C@@]1(NC(=O)C(NC(=O)c2cnccc2O)c2ccccc2)C(=O)N2C(C(=O)[O-])=C(C[n+]3ccccc3)CS[C@@H]21 (stereo partly shown) [Example 16] | 25 (≈ 43.4 µM) | 12.5 (≈ 21.7 µM) | 6.25 (≈ 10.9 µM) | 50 (≈ 86.9 µM) | 1.56 (≈ 2.71 µM)
16 | COc1cnc2c(O)c(C(=O)NC(C(=O)N[C@]3(OC)C(=O)N4C(C(=O)O)=C(CSc5nnnn5C)CS[C@@H]43)c3ccc(O)cc3)cnc2n1 (stereo partly shown) [Example 17] | 6.25 (≈ 8.79 µM) | 3.13 (≈ 4.4 µM) | 3.13 (≈ 4.4 µM) | 6.25 (≈ 8.79 µM) | 0.2 (≈ 0.281 µM)

Row | Structure (SMILES) | MIC [1] [mg/L] | MIC (Escherichia coli NIHJ) [mg/L] | MIC [2] [mg/L] | MIC (Serratia No. 115) [mg/L] | MIC (Proteus vulgaris HX 19) [mg/L]
17 | CO[C@@]1(NC(=O)C(NC(=O)c2cnc3nc(SC)ncc3c2O)c2ccc(O)cc2)C(=O)N2C(C(=O)O)=C(COC(N)=O)CS[C@@H]21 (stereo partly shown) [Example 18] | 12.5 (≈ 18.6 µM) | 12.5 (≈ 18.6 µM) | 6.25 (≈ 9.31 µM) | 50 (≈ 74.4 µM) | 0.78 (≈ 1.16 µM)
18 | CO[C@@]1(NC(=O)C(NC(=O)c2cnc3nc(SC)ncc3c2O)c2ccc(O)cc2)C(=O)N2C(C(=O)O)=C(CSc3ccc(O)nn3)CS[C@@H]21 (stereo partly shown) [Example 19] | 12.5 (≈ 16.9 µM) | 6.25 (≈ 8.46 µM) | 3.13 (≈ 4.24 µM) | 25 (≈ 33.8 µM) | 0.78 (≈ 1.06 µM)
19 | CO[C@@]1(NC(=O)C(NC(=O)c2cnc3ccc(SC)nc3c2O)c2ccc(O)c(Cl)c2)C(=O)N2C(C(=O)O)=C(CSc3nnc(CO)s3)CS[C@@H]21 (stereo partly shown) [Example 20] | 6.25 (≈ 7.89 µM) | 3.13 (≈ 3.95 µM) | 3.13 (≈ 3.95 µM) | 6.25 (≈ 7.89 µM) | 0.39 (≈ 0.492 µM)
20 | CNc1nnc(SCC2=C(C(=O)O)N3C(=O)[C@](NC(=O)C(NC(=O)c4cnc5ccc(OC)nc5c4O)c4ccc(O)c(Cl)c4)(OC)[C@H]3SC2)s1 (stereo partly shown) [Example 21] | 6.25 (≈ 8.06 µM) | 1.56 (≈ 2.01 µM) | 3.13 (≈ 4.04 µM) | 12.5 (≈ 16.1 µM) | 0.39 (≈ 0.503 µM)
21 | CCN(CC)c1ccc2ncc(C(=O)NC(C(=O)N[C@]3(OC)C(=O)N4C(C(=O)O)=C(CSc5cnn[nH]5)CS[C@@H]43)c3ccc(O)cc3)c(O)c2n1 (stereo partly shown) [Example 22] | 6.25 (≈ 8.49 µM) | 3.13 (≈ 4.25 µM) | 3.13 (≈ 4.25 µM) | 25 (≈ 34 µM) | 0.39 (≈ 0.53 µM)
22 | CO[C@@]1(NC(=O)C(NC(=O)c2cccnc2O)c2ccc(O)cc2)C(=O)N2C(C(=O)O)=C(COC(N)=O)CS[C@@H]21 (stereo partly shown) [Example 23] | 50 (≈ 87.2 µM) | 12.5 (≈ 21.8 µM) | 12.5 (≈ 21.8 µM) | 100 (≈ 174 µM) | 0.78 (≈ 1.36 µM)
23 | CO[C@@]1(NC(=O)C(NC(=O)c2ncccc2O)c2ccccc2)C(=O)N2C(C(=O)[O-])=C(C[n+]3ccc(C(N)=O)cc3)CS[C@@H]21 (stereo partly shown) [Example 24] | 25 (≈ 40.4 µM) | 12.5 (≈ 20.2 µM) | 12.5 (≈ 20.2 µM) | 50 (≈ 80.8 µM) | 0.78 (≈ 1.26 µM)
24 | CO[C@@]1(NC(=O)C(NC(=O)c2cnc3nc(N4CCNCC4)ncc3c2O)c2ccc(O)cc2)C(=O)N2C(C(=O)O)=C(COC(N)=O)CS[C@@H]21 (stereo partly shown) [Example 25] | 25 (≈ 35.2 µM) | 12.5 (≈ 17.6 µM) | 6.25 (≈ 8.81 µM) | 50 (≈ 70.5 µM) | 0.78 (≈ 1.1 µM)
25 | CO[C@@]1(NC(=O)C(NC(=O)c2cnc3nc(N4CCCC4)cnc3c2O)c2ccc(O)cc2)C(=O)N2C(C(=O)O)=C(CSc3n[nH]c(=S)s3)CS[C@@H]21 (stereo partly shown) [Example 26] | 12.5 (≈ 15.9 µM) | 6.25 (≈ 7.97 µM) | 6.25 (≈ 7.97 µM) | 12.5 (≈ 15.9 µM) | 0.39 (≈ 0.498 µM)
26 | CO[C@@]1(NC(=O)C(NC(=O)c2nccnc2O)c2ccc(O)cc2)C(=O)N2C(C(=O)O)=C(CSc3nnc(C)s3)CS[C@@H]21 (stereo partly shown) [Example 27] | 50 (≈ 77.4 µM) | 25 (≈ 38.7 µM) | 25 (≈ 38.7 µM) | 50 (≈ 77.4 µM) | 1.56 (≈ 2.42 µM)
27 | COC1(NC(=O)C(NC(=O)c2cc3ncccc3nc2O)c2ccc(O)cc2)C(=O)N2C(C(=O)O)=C(CSc3nnnn3C)CSC21 (stereo not shown) [Example 28] | 6.25 (≈ 9.2 µM) | 1.56 (≈ 2.3 µM) | 3.13 (≈ 4.6 µM) | 6.25 (≈ 9.2 µM) | 0.39 (≈ 0.574 µM)
28 | COC1(NC(=O)C(NC(=O)c2cnc3sccc3c2O)c2ccc(O)cc2)C(=O)N2C(C(=O)O)=C(CSc3nnnn3C)CSC21 (stereo not shown) [Example 29] | 12.5 (≈ 18.3 µM) | 12.5 (≈ 18.3 µM) | 6.25 (≈ 9.13 µM) | 12.5 (≈ 18.3 µM) | 0.78 (≈ 1.14 µM)
29 | COC1(NC(=O)C(NC(=O)c2cnc3scnc3c2O)c2ccc(O)cc2)C(=O)N2C(C(=O)O)=C(COC(N)=O)CSC21 (stereo not shown) [Example 30] | 12.5 (≈ 19.8 µM) | 6.25 (≈ 9.91 µM) | 6.25 (≈ 9.91 µM) | 12.5 (≈ 19.8 µM) | 0.39 (≈ 0.618 µM)
30 | COC1(NC(=O)C(NC(=O)c2cnc3cccnc3c2O)c2cccc(O)c2)C(=O)N2C(C(=O)O)=C(CSc3nnc(C)s3)CSC21 (stereo not shown) [Example 31] | 6.25 (≈ 8.98 µM) | 3.13 (≈ 4.5 µM) | 3.13 (≈ 4.5 µM) | 25 (≈ 35.9 µM) | 0.39 (≈ 0.561 µM)
31 | COC1(NC(=O)C(NC(=O)c2cnc3cccnc3c2O)C2=CCC=CC2)C(=O)N2C(C(=O)O)=C(CSc3nnc(C)s3)CSC21 (stereo not shown) [Example 32] | 6.25 (≈ 9.17 µM) | 3.13 (≈ 4.59 µM) | 3.13 (≈ 4.59 µM) | 25 (≈ 36.7 µM) | 0.39 (≈ 0.572 µM)
32 | COC1(NC(=O)C(NC(=O)c2cnccc2O)C2=CCC=CC2)C(=O)N2C(C(=O)O)=C(COC(N)=O)CSC21 (stereo not shown) [Example 33] | 50 (≈ 89.4 µM) | 12.5 (≈ 22.3 µM) | 12.5 (≈ 22.3 µM) | 100 (≈ 179 µM) | 0.39 (≈ 0.697 µM)
